Assay results from PubChem BioAssay AID1963973 (Molecular Pharmacology Branch, DTP, NCI, 2024).

Test system: 883617-216-R-J1-PDC tumor spheroids, viability
Assay: Anticancer human tumor 883617-216-R-J1-PDC patient-derived bladder carcinoma cell line growth inhibition [PI3K]
Conditions: spheroids with HUVEC and MSC; for IC50: curve of first compound; for viability, T/C: stronger effect = lower value
Method in brief: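 Stroma-containing spheroids: tumor line, pooled-donor HUVEC, hMSC. Treatments: targeted agents with PI3K inhibitors. Dosing: clinically relevant, half-log spacing, 10 microM ceiling without known Cmax. Read-out: cell viability.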

[1] = second compound 0.00316 µM, first compound 0.0316 µM
[2] = second compound 0.00316 µM, first compound 0.1 µM
[3] = second compound 0.01 µM, first compound 0.0316 µM
[4] = second compound 0.01 µM, first compound 0.1 µM
[5] = second compound 0.0316 µM, first compound 0.0316 µM
[6] = second compound 0.0316 µM, first compound 0.1 µM
[7] = second compound 0.1 µM, first compound 0.0316 µM
[8] = second compound 0.1 µM, first compound 0.1 µM
[9] = second compound 0.316 µM, first compound 0.0316 µM
[10] = second compound 0.316 µM, first compound 0.1 µM
[11] = second compound 1 µM, first compound 0.0316 µM
[12] = second compound 1 µM, first compound 0.1 µM
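Also: spheroids exposed to agents for 7 days before the viability read.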

## CC(=O)c1c(C)c2cnc(Nc3ccc(N4CCNCC4)cn3)nc2n(C2CCCC2)c1=O + COc1c(OCCCN2CCOCC2)ccc2c3n(c(=NC(=O)c4cnc(N)nc4)nc12)CCN3
Second compound 0.00316 µM
  IC50: 41.2 nM
Second compound 0.01 µM
  IC50: 24.7 nM
Second compound 0.0316 µM
  IC50: < 0.316 nM
Second compound 0.1 µM
  IC50: < 0.316 nM
Second compound 0.316 µM
  IC50: < 0.316 nM
Second compound 1 µM
  IC50: < 0.316 nM
Second compound 0.00316 µM, first compound 0.000316 µM
  viability, T/C: 63.1%
Second compound 0.00316 µM, first compound 0.001 µM
  viability, T/C: 75.6%
Second compound 0.00316 µM, first compound 0.00316 µM
  viability, T/C: 92.5%
Second compound 0.00316 µM, first compound 0.01 µM
  viability, T/C: 72.2%
[1]
  viability, T/C: 53.3%
[2]
  viability, T/C: 39.7%
Second compound 0.01 µM, first compound 0.000316 µM
  viability, T/C: 71.5%
Second compound 0.01 µM, first compound 0.001 µM
  viability, T/C: 70.5%
Second compound 0.01 µM, first compound 0.00316 µM
  viability, T/C: 61.2%
Second compound 0.01 µM, first compound 0.01 µM
  viability, T/C: 71.6%
[3]
  viability, T/C: 44.9%
[4]
  viability, T/C: 26.4%
Second compound 0.0316 µM, first compound 0.000316 µM
  viability, T/C: 40.5%
Second compound 0.0316 µM, first compound 0.001 µM
  viability, T/C: 37.6%
Second compound 0.0316 µM, first compound 0.00316 µM
  viability, T/C: 30.2%
Second compound 0.0316 µM, first compound 0.01 µM
  viability, T/C: 27.5%
[5]
  viability, T/C: 27.1%
[6]
  viability, T/C: 21.6%
Second compound 0.1 µM, first compound 0.000316 µM
  viability, T/C: 16.1%
Second compound 0.1 µM, first compound 0.001 µM
  viability, T/C: 12.2%
Second compound 0.1 µM, first compound 0.00316 µM
  viability, T/C: 11.1%
Second compound 0.1 µM, first compound 0.01 µM
  viability, T/C: 13%
[7]
  viability, T/C: 11.2%
[8]
  viability, T/C: 11.8%
Second compound 0.316 µM, first compound 0.000316 µM
  viability, T/C: 4.61%
Second compound 0.316 µM, first compound 0.001 µM
  viability, T/C: 5.01%
Second compound 0.316 µM, first compound 0.00316 µM
  viability, T/C: 4.74%
Second compound 0.316 µM, first compound 0.01 µM
  viability, T/C: 3.95%
[9]
  viability, T/C: 4.31%
[10]
  viability, T/C: 3.85%
Second compound 1 µM, first compound 0.000316 µM
  viability, T/C: 3.24%
Second compound 1 µM, first compound 0.001 µM
  viability, T/C: 2.85%
Second compound 1 µM, first compound 0.00316 µM
  viability, T/C: 2.99%
Second compound 1 µM, first compound 0.01 µM
  viability, T/C: 3.68%
[11]
  viability, T/C: 2.94%
[12]
  viability, T/C: 2.98%

## CCCS(=O)(=O)Nc1ccc(F)c(C(=O)c2c[nH]c3ncc(-c4ccc(Cl)cc4)cc23)c1F + COc1c(OCCCN2CCOCC2)ccc2c3n(c(=NC(=O)c4cnc(N)nc4)nc12)CCN3
Second compound 0.00316 µM
  IC50: 4090 nM
Second compound 0.01 µM
  IC50: 3650 nM
Second compound 0.0316 µM
  IC50: < 31.6 nM
Second compound 0.1 µM
  IC50: < 31.6 nM
Second compound 0.316 µM
  IC50: < 31.6 nM
Second compound 1 µM
  IC50: < 31.6 nM
[1]
  viability, T/C: 78.5%
[2]
  viability, T/C: 88.4%
Second compound 0.00316 µM, first compound 0.316 µM
  viability, T/C: 85.1%
Second compound 0.00316 µM, first compound 1 µM
  viability, T/C: 77.9%
Second compound 0.00316 µM, first compound 3.16 µM
  viability, T/C: 61.7%
Second compound 0.00316 µM, first compound 10 µM
  viability, T/C: 10.4%
[3]
  viability, T/C: 67%
[4]
  viability, T/C: 72.6%
Second compound 0.01 µM, first compound 0.316 µM
  viability, T/C: 85.3%
Second compound 0.01 µM, first compound 1 µM
  viability, T/C: 61.7%
Second compound 0.01 µM, first compound 3.16 µM
  viability, T/C: 56.6%
Second compound 0.01 µM, first compound 10 µM
  viability, T/C: 13.1%
[5]
  viability, T/C: 38.8%
[6]
  viability, T/C: 45.7%
Second compound 0.0316 µM, first compound 0.316 µM
  viability, T/C: 47%
Second compound 0.0316 µM, first compound 1 µM
  viability, T/C: 44.2%
Second compound 0.0316 µM, first compound 3.16 µM
  viability, T/C: 36.9%
Second compound 0.0316 µM, first compound 10 µM
  viability, T/C: 12.8%
[7]
  viability, T/C: 25%
[8]
  viability, T/C: 19.9%
Second compound 0.1 µM, first compound 0.316 µM
  viability, T/C: 17.6%
Second compound 0.1 µM, first compound 1 µM
  viability, T/C: 17.8%
Second compound 0.1 µM, first compound 3.16 µM
  viability, T/C: 18%
Second compound 0.1 µM, first compound 10 µM
  viability, T/C: 7.55%
[9]
  viability, T/C: 5.17%
[10]
  viability, T/C: 7.28%
Second compound 0.316 µM, first compound 0.316 µM
  viability, T/C: 6.6%
Second compound 0.316 µM, first compound 1 µM
  viability, T/C: 8.36%
Second compound 0.316 µM, first compound 3.16 µM
  viability, T/C: 9.94%
Second compound 0.316 µM, first compound 10 µM
  viability, T/C: 4.39%
[11]
  viability, T/C: 3.48%
[12]
  viability, T/C: 4.22%
Second compound 1 µM, first compound 0.316 µM
  viability, T/C: 4.32%
Second compound 1 µM, first compound 1 µM
  viability, T/C: 5.19%
Second compound 1 µM, first compound 3.16 µM
  viability, T/C: 6.41%
Second compound 1 µM, first compound 10 µM
  viability, T/C: 2.37%
